From patent publication US20040156869A1, “2-substituted quinazolin-4-ylamine analogues” (Neurogen Corporation, priority 2002, published 2004)

Target: human capsaicin receptor (VR1) (Homo sapiens, UniProt Q8NER1)
Assay: Capsaicin receptor binding assay ([3H]RTX competition, VR1-transfected HEK293 membranes)

Sequence of human capsaicin receptor (VR1) (Q8NER1 whole entry): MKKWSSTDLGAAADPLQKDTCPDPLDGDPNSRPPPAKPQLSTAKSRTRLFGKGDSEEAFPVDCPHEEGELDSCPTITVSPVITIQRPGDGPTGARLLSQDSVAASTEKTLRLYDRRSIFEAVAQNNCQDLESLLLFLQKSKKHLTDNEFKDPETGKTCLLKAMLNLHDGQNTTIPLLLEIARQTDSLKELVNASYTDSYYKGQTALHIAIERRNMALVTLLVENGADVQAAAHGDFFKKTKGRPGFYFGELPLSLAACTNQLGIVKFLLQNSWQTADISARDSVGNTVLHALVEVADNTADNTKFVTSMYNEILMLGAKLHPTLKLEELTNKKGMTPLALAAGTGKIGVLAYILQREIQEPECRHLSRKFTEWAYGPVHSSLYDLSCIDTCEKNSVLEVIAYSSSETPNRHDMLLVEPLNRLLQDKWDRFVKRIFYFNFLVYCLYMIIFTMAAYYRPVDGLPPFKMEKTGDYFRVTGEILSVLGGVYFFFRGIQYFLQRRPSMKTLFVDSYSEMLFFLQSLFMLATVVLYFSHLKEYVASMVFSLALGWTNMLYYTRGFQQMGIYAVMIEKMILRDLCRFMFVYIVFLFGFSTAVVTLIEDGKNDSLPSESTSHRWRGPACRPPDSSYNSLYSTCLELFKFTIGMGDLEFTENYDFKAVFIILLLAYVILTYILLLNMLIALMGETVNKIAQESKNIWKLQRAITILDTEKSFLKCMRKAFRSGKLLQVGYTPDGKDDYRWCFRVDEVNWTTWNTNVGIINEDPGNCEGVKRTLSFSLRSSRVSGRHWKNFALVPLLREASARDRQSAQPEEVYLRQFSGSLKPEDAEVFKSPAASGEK

Ki, < 1000 nM:
COCCc1nc(Nc2ccc(C(C)(C)C)nc2)c2ccc(-c3ncccc3C(F)(F)F)cc2n1 [Compound 49, (6-tert-Butyl-pyridin-3-yl)-[2-(2-methoxy-ethyl)-7-(3-trifluoromethyl-pyridin-2-yl)-quinazolin-4-yl]-amine]
CN1CCN(Cc2nc(Nc3ccc(C(F)(F)F)cn3)c3ccc(-c4ncccc4C(F)(F)F)cc3n2)CC1 [Compound 522, [2-(4-Methyl-piperazin-1-ylmethyl)-7-(3-trifluoromethyl-pyridin-2-yl)-quinazolin-4-yl]-(5-trifluoromethyl-pyridin-2-yl)-amine]
CC(C)(C#N)c1ccc(Nc2nc(COCc3ccccc3)nc3cc(-c4ncccc4C(F)(F)F)ccc23)cc1 [Compound 41, 2-{4-[2-Benzyloxymethyl-7-(3-trifluoromethyl-pyridin-2-yl)-quinazolin-4-ylamino]-phenyl}-2-methyl-propionitrile]
FC(F)(F)c1ccc(Nc2nc(CN3CCCCCC3)nc3cc(-c4ncccc4C(F)(F)F)ccc23)cn1 [Compound 361, [2-Azepan-1-ylmethyl-7-(3-trifluoromethyl-pyridin-2-yl)-quinazolin-4-yl]-(6-trifluoromethyl-pyridin-3-yl)-amine]
C[C@@H]1CN(Cc2nc(Nc3ccc(S(=O)(=O)C(F)(F)F)cc3)c3ncc(-c4ncccc4Cl)cc3n2)C[C@H](C)O1 [Compound 617, [7-(3-Chloro-pyridin-2-yl)-2-(2,6-dimethyl-morpholin-4-ylmethyl)-pyrido[3,2-d]pyrimidin-4-yl]-(4-trifluoromethanesulfonyl-phenyl)-amine (cis)]
COCc1nc(Nc2ccc(C(F)(F)F)cc2)c2ccc(-c3ncccc3C)nc2n1 [Compound 88, [2-Methoxymethyl-7-(3-methyl-pyridin-2-yl)-pyrido[2,3-d]pyrimidin-4-yl]-(4-trifluoromethyl-phenyl)-amine]
COCc1nc(Nc2ccc(C(C)(C)C)nc2)c2ccc(-c3ncccc3Cl)nc2n1 [Compound 199, (6-tert-Butyl-pyridin-3-yl)-[7-(3-chloro-pyridin-2-yl)-2-methoxymethyl-pyrido[2,3-d]pyrimidin-4-yl]-amine]
Cc1ccccc1CN(C)CCc1nc(Nc2ccc(C(F)(F)F)cc2)c2ccc(-c3ncccc3C(F)(F)F)cc2n1 [Compound 395, [2-{2-[Methyl-(2-methyl-benzyl)-amino]-ethyl}-7-(3-trifluoromethyl-pyridin-2-yl)-quinazolin-4-yl]-(4-trifluoromethyl-phenyl)-amine]
CN(C)CCCCOCc1nc(Nc2ccc(C(C)(C)C)cc2)c2ccc(-c3ncccc3C(F)(F)F)cc2n1 [Compound 111, (4-tert-Butyl-phenyl)-[2-(4-dimethylamino-butoxymethyl)-7-(3-trifluoromethyl-pyridin-2-yl)-quinazolin-4-yl]-amine]
CC(C)(C)c1ccc(Nc2nc(CN3CCC[C@H]3C(=O)O)nc3nc(-c4ncccc4C(F)(F)F)ccc23)cc1 [Compound 758, (S)-1-[4-(4-tert-Butyl-phenylamino)-7-(3-trifluoromethyl-pyridin-2-yl)-pyrido[2,3-d]pyrimidin-2-ylmethyl]-pyrrolidine-2-carboxylic acid]
CN1CCN(CCCNC(=O)c2nc(Nc3ccc(C(F)(F)F)cc3)c3ccc(-c4ncccc4C(F)(F)F)nc3n2)CC1 [Compound 433, 4-(4-Trifluoromethyl-phenylamino)-7-(3-trifluoromethyl-pyridin-2-yl)-pyrido[2,3-d]pyrimidine-2-carboxylic acid [3-(4-methyl-piperazin-1-yl)-propyl]-amide]
CCC(=O)N1CCC(c2nc(Nc3ccc(C(F)(F)F)cc3)c3ccc(-c4ncccc4C(F)(F)F)cc3n2)CC1 [Compound 694, 1-{4-[4-(4-Trifluoromethyl-phenylamino)-7-(3-trifluoromethyl-pyridin-2-yl)-quinazolin-2-yl]-piperidin-1-yl}-propan-1-one]
CC(C)(C)c1ccc(Nc2nc(CN3CCC[C@H]3C(=O)O)nc3cc(-c4ncccc4C(F)(F)F)ccc23)cc1 [Compound 744, (S)-1-[4-(4-tert-Butyl-phenylamino)-7-(3-trifluoromethyl-pyridin-2-yl)-quinazolin-2-ylmethyl]-pyrrolidine-2-carboxylic acid]
COCCc1nc(Nc2ccc(C(C)C)cc2)c2ccc(-c3ncccc3C(F)(F)F)cc2n1 [Compound 48, (4-Isopropyl-phenyl)-[2-(2-methoxy-ethyl)-7-(3-trifluoromethyl-pyridin-2-yl)-quinazolin-4-yl]-amine]
NC(=O)C1CCN(CCc2nc(Nc3ccc(C(F)(F)F)cc3)c3ccc(-c4ncccc4C(F)(F)F)cc3n2)CC1 [Compound 589, 1-{2-[4-(4-Trifluoromethyl-phenylamino)-7-(3-trifluoromethyl-pyridin-2-yl)-quinazolin-2-yl]-ethyl}-piperidine-4-carboxylic acid amide]
CCCC(=O)c1ccc(Nc2nc(COC)nc3cc(-c4ncccc4C(F)(F)F)cnc23)cc1 [Compound 57, 1-{4-[2-Methoxymethyl-7-(3-trifluoromethyl-pyridin-2-yl)-pyrido[3,2-d]pyrimidin-4-ylamino]-phenyl}-butan-1-one]
FC(F)(F)c1ccc(Nc2nc(COCc3ccccc3)nc3cc(-c4ncccc4C(F)(F)F)ccc23)nc1 [Compound 26, [2-Benzyloxymethyl-7-(3-trifluoromethyl-pyridin-2-yl)-quinazolin-4-yl]-(5-trifluoromethyl-pyridin-2-yl)-amine]
CCC1CCCCN1Cc1cc(Nc2ccc(C(F)(F)F)cc2)c2ccc(-c3ncccc3C(F)(F)F)nc2n1 (centres unmarked) [Compound 812, [2-(2-Ethyl-piperidin-1-ylmethyl)-7-(3-trifluoromethyl-pyridin-2-yl)-[1,8]naphthyridin-4-yl]-(4-trifluoromethyl-phenyl)-amine]
CC(C)COCc1nc(Nc2ccc(S(C)(=O)=O)cc2)c2ccc(-c3ncccc3Cl)nc2n1 [Compound 226, [7-(3-Chloro-pyridin-2-yl)-2-isobutoxymethyl-pyrido[2,3-d]pyrimidin-4-yl]-(4-methanesulfonyl-phenyl)-amine]
COCc1nc(Nc2ccc(C(C)C)cc2)c2ccc(-c3ncccc3C(F)(F)F)cc2n1 [Compound 72, (4-Isopropyl-phenyl)-[2-methoxymethyl-7-(3-trifluoromethyl-pyridin-2-yl)-quinazolin-4-yl]-amine]
CC(C)N(C)Cc1nc(Nc2ccc(C(F)(F)F)nc2)c2ccc(-c3ncccc3C(F)(F)F)cc2n1 [Compound 378, [2-[(Isopropyl-methyl-amino)-methyl]-7-(3-trifluoromethyl-pyridin-2-yl)-quinazolin-4-yl]-(6-trifluoromethyl-pyridin-3-yl)-amine]
CC1(C)CCCN(Cc2nc(Nc3ccc(C(F)(F)F)cc3)c3ncc(-c4ncccc4C(F)(F)F)cc3n2)C1 [Compound 661, [2-(3,3-Dimethyl-piperidin-1-ylmethyl)-7-(3-trifluoromethyl-pyridin-2-yl)-pyrido[3,2-d]pyrimidin-4-yl]-(4-trifluoromethyl-phenyl)-amine]
COc1cc(Nc2nc(COCC(C)C)nc3nc(-c4ncccc4Cl)ccc23)ccc1F [Compound 285, [7-(3-Chloro-pyridin-2-yl)-2-isobutoxymethyl-pyrido[2,3-d]pyrimidin-4-yl]-(4-fluoro-3-methoxy-phenyl)-amine]
COCc1nc(Nc2ccc(C(C)(C)C(C)=O)cc2)c2ccc(-c3ncccc3C(F)(F)F)nc2n1 [Compound 208, 3-{4-[2-Methoxymethyl-7-(3-trifluoromethyl-pyridin-2-yl)-pyrido[2,3-d]pyrimidin-4-ylamino]-phenyl}-3-methyl-butan-2-one]
O=C(NCCN1CCCCC1)c1nc(Nc2ccc(C(F)(F)F)cc2)c2ccc(-c3ncccc3C(F)(F)F)nc2n1 [Compound 439, 4-(4-Trifluoromethyl-phenylamino)-7-(3-trifluoromethyl-pyridin-2-yl)-pyrido[2,3-d]pyrimidine-2-carboxylic acid (2-piperidin-1-yl-ethyl)-amide]
CS(=O)(=O)c1ccc(Nc2nc(COCc3ccccc3)nc3cc(-c4ncccc4C(F)(F)F)ccc23)cc1 [Compound 40, [2-Benzyloxymethyl-7-(3-trifluoromethyl-pyridin-2-yl)-quinazolin-4-yl]-(4-methanesulfonyl-phenyl)-amine]
CC(C)CNCc1nc(Nc2ccc(C(F)(F)F)cc2)c2ccc(-c3ncccc3C(F)(F)F)cc2n1 [Compound 536, [2-(Isobutylamino-methyl)-7-(3-trifluoromethyl-pyridin-2-yl)-quinazolin-4-yl]-(4-trifluoromethyl-phenyl)-amine]
COCc1nc(Nc2ccc(Cl)c(F)c2)c2ccc(-c3ncccc3C(F)(F)F)nc2n1 [Compound 292, (4-Chloro-3-fluoro-phenyl)-[2-methoxymethyl-7-(3-trifluoromethyl-pyridin-2-yl)-pyrido[2,3-d]pyrimidin-4-yl]-amine]
COCc1nc(Nc2ccc(C(C)C)cc2)c2ccc(-c3ncccc3C)cc2n1 [Compound 78, (4-Isopropyl-phenyl)-[2-methoxymethyl-7-(3-methyl-pyridin-2-yl)-quinazolin-4yl]-amine]
CCCN(CCC)CCc1nc(Nc2ccc(C(F)(F)F)cc2)c2ccc(-c3ncccc3C(F)(F)F)cc2n1 [Compound 416, [2-Dipropylaminoethyl-7-(3-trifluoromethyl-pyridin-2-yl)-quinazolin-4-yl]-(4-trifluoromethyl-phenyl)-amine]
CC(C)(C)c1ccc(Nc2nc(COCCCCN3CCOCC3)nc3cc(-c4ncccc4C(F)(F)F)ccc23)cc1 [Compound 125, (4-tert-Butyl-phenyl)-[2-(4-morpholin-4-yl-butoxymethyl)-7-(3-trifluoromethyl-pyridin-2-yl)-quinazolin-4-yl]-amine]
CC(=O)C(C)(C)c1ccc(Nc2nc(COCC(C)C)nc3nc(-c4ncccc4C)ccc23)cc1 [Compound 209, 3-{4-[2-Isobutoxymethyl-7-(3-methyl-pyridin-2-yl)-pyrido[2,3-d]pyrimidin-4-ylamino]-phenyl}-3-methyl-butan-2-one]
